Assay results as given in paper PMC10709440, “High-throughput ligand profile characterization in novel cell lines expressing seven heterologous insect olfactory receptors for the detection of volatile plant biomarkers” (Scientific Reports, 2023).
Read-outs that look alike come from different tables or passages of the source.

Columns and labels:
[1] = target: T1, Drosophila OR10a (Drosophila melanogaster, UniProt Q9VYZ1); test: Calcium ion fluorescence (GCaMP6) assay, OR10a stable HEK293 cell line; format: cell-based; design: key to DF norm AVERAGE OR10a: VOC ∆F divided by the plate's mean ∆F response to 50 µM VUAA1; conditions: for DF norm AVERAGE OR10a: threshold 0.05, below shown as 0
T1 construct: expressed in transfected cells
T1 sequence (Q9VYZ1 1-406): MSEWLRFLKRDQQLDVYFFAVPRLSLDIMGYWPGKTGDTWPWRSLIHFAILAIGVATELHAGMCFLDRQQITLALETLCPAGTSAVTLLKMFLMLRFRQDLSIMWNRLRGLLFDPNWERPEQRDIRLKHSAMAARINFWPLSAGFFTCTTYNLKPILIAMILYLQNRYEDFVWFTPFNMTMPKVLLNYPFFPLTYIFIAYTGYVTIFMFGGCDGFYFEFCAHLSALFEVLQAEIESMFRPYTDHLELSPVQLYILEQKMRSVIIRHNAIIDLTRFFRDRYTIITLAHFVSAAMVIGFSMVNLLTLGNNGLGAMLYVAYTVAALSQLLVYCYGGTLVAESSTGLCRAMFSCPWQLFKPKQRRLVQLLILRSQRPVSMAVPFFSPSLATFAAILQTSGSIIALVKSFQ
T1 sequence (Q9VNB5 1-486 partner): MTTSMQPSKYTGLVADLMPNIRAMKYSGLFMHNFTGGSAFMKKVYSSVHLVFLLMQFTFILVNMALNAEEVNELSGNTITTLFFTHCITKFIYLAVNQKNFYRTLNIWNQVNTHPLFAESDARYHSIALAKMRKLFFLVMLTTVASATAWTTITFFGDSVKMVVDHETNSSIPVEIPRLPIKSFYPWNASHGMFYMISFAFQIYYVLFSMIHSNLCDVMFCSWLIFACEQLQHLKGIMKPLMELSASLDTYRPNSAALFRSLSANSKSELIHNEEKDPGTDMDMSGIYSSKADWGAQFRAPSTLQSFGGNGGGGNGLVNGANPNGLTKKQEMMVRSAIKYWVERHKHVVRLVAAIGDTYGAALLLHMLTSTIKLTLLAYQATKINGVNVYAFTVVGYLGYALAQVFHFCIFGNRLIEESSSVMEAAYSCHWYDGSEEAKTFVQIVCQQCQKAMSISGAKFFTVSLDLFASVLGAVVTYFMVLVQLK
Summary of the method: (§1)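 Responses are VUAA1-normalized ΔF: each VOC-evoked calcium signal, (FMAX−F0)/F0 over 30 s after injection, divided by the same line's mean 50 µM VUAA1 response. Cells were doxycycline-induced HEK293 with GCaMP6 and the cognate Drosophila OR, in HEPES buffer pH 7.3; ligands tested 0.01–100 μM.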

[2] = target: T2, Drosophila OR13a (Drosophila melanogaster, UniProt Q9VXL0); test: Calcium ion fluorescence (GCaMP6) assay, OR13a stable HEK293 cell line; format: cell-based; design: key to DF norm AVERAGE OR13a: VOC ∆F divided by the plate's mean ∆F response to 50 µM VUAA1; conditions: for DF norm AVERAGE OR13a: threshold 0.05, below shown as 0
T2 construct: expressed in transfected cells
T2 sequence (Q9VXL0 1-418): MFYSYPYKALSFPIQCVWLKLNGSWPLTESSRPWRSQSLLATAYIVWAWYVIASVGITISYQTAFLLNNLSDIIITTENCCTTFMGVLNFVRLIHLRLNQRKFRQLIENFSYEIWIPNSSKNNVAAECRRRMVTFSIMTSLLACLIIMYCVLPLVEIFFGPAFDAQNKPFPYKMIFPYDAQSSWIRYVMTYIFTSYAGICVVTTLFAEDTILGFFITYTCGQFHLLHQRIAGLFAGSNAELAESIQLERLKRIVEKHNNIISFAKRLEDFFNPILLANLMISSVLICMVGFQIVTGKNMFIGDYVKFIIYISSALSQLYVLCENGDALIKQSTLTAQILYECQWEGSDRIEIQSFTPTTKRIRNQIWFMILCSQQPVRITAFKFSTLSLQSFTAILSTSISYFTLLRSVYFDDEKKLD
T2 sequence (Q9VNB5 1-486 partner): T1 sequence (Q9VNB5 1-486 partner)
Summary of the method: as §1

[3] = 1 μM VOC, 50 μM VUAA1 = 1, responses not exceeding 0.05 considered 0
[4] = 10 μM VOC, 50 μM VUAA1 = 1, responses not exceeding 0.05 considered 0
[5] = 100 μM VOC, 50 μM VUAA1 = 1, responses not exceeding 0.05 considered 0
[6] = ligand concentration 1 (unit not given)
[7] = ligand concentration 10 (unit not given)
[8] = ligand concentration 100 (unit not given)
[9] = HEK293, read-out: OR10a Average response (VUAA1-normalized), 1 μM VOC, 50 μM VUAA1 = 1, responses not exceeding 0.05 considered 0
[10] = HEK293, read-out: OR10a Average response (VUAA1-normalized), 10 μM VOC, 50 μM VUAA1 = 1, responses not exceeding 0.05 considered 0
[11] = HEK293, read-out: OR10a Average response (VUAA1-normalized), 100 μM VOC, 50 μM VUAA1 = 1, responses not exceeding 0.05 considered 0
[12] = HEK293, read-out: OR10a response (VUAA1-normalized response), VOC concentration 1 μM
[13] = HEK293, read-out: OR10a response (VUAA1-normalized response), VOC concentration 10 μM
[14] = HEK293, read-out: OR10a response (VUAA1-normalized response), VOC concentration 100 μM
[15] = HEK293, read-out: OR13a Average response (VUAA1-normalized), 1 μM VOC, 50 μM VUAA1 = 1, responses not exceeding 0.05 considered 0
[16] = HEK293, read-out: OR13a Average response (VUAA1-normalized), 10 μM VOC, 50 μM VUAA1 = 1, responses not exceeding 0.05 considered 0
[17] = HEK293, read-out: OR13a Average response (VUAA1-normalized), 100 μM VOC, 50 μM VUAA1 = 1, responses not exceeding 0.05 considered 0
[18] = HEK293, read-out: OR13a response (VUAA1-normalized response), VOC concentration 1 μM
[19] = HEK293, read-out: OR13a response (VUAA1-normalized response), VOC concentration 10 μM
[20] = HEK293, read-out: OR13a response (VUAA1-normalized response), VOC concentration 100 μM
[21] = HEK293, 1 μM VOC, 50 μM VUAA1 = 1, responses not exceeding 0.05 considered 0, read-out: OR10a Average response (VUAA1-normalized)
[22] = HEK293, 10 μM VOC, 50 μM VUAA1 = 1, responses not exceeding 0.05 considered 0, read-out: OR10a Average response (VUAA1-normalized)
[23] = HEK293, 100 μM VOC, 50 μM VUAA1 = 1, responses not exceeding 0.05 considered 0, read-out: OR10a Average response (VUAA1-normalized)
[24] = HEK293, read-out: OR10a Average response (VUAA1-normalized)
[25] = HEK293, read-out: OR10a response (VUAA1-normalized response)
[26] = HEK293, read-out: OR13a Average response (VUAA1-normalized)
[27] = HEK293, read-out: OR13a response (VUAA1-normalized response)

| Compound | DF norm AVERAGE OR10a [1, 6] | DF norm AVERAGE OR10a [1, 7] | DF norm AVERAGE OR10a [1, 8] | DF norm AVERAGE OR13a [2, 6] | DF norm AVERAGE OR13a [2, 7] | DF norm AVERAGE OR13a [2, 8] | activation at 1 µM [1, 12] [%] | activation at 10 µM [1, 13] [%] | activation at 100 µM [1, 14] [%] | activation at 1 µM [2, 15] [%] | activation at 10 µM [2, 16] [%] | activation at 100 µM [2, 17] [%] | activation at 1 µM [2, 18] [%] | activation at 10 µM [2, 19] [%] | activation at 100 µM [2, 20] [%] | activation at 1 µM [1, 21] [%] | activation at 10 µM [1, 22] [%] | activation at 100 µM [1, 23] [%] | further results |
| --- | --- | --- | --- | --- | --- | --- | --- | --- | --- | --- | --- | --- | --- | --- | --- | --- | --- | --- | --- |
| CC(C)=CCC/C(C)=C/CC/C(C)=C/CO [e,e-farnesol] | 0 | 0.06329 | 0 | 0 | 0 | 0 | – | – | – | – | – | – | – | – | – | – | – | – | OR10a Average response (VUAA1-normalized) [1, 3]: 0.034; OR10a Average response (VUAA1-normalized) [1, 4]: 0.0633; OR10a Average response (VUAA1-normalized) [1, 5]: 0.0174; OR10a response (VUAA1-normalized response) ([1]; VOC concentration 1 μM): 0.00; OR10a response (VUAA1-normalized response) ([1]; VOC concentration 10 μM): 0.0633; OR10a response (VUAA1-normalized response) ([1]; VOC concentration 100 μM): 0.00; OR13a Average response (VUAA1-normalized) [2, 3]: 0.00; OR13a Average response (VUAA1-normalized) [2, 4]: 0.033; OR13a Average response (VUAA1-normalized) [2, 5]: 0.026; OR13a response (VUAA1-normalized response) ([2]; VOC concentration 1 μM): 0.00; OR13a response (VUAA1-normalized response) ([2]; VOC concentration 10 μM): 0.00; OR13a response (VUAA1-normalized response) ([2]; VOC concentration 100 μM): 0.00 |
| CCOC(=O)c1ccccc1 [ethyl benzoate] | 0.2908 | 0.4538 | 0.4934 | 0 | 0 | 0 | 29 | 45 | 49 | 1.69 | 2.64 | 1.67 | 0 | 0 | 0 | – | – | – | activation at 1 µM [1, 9]: 29%; activation at 10 µM [1, 10]: 45%; activation at 100 µM [1, 11]: 49% |
| CCCC(=O)OCC [ethyl butyrate] | 0 | 0 | 0 | 0 | 0 | 0 | 0 | 0 | 0 | 0 | 0 | 0 | 0 | 0 | 0 | 0 | 2.38 | 2.76 | – |
| CCCCCC(=O)OCC [ethyl hexanoate] | 0.06289 | 0 | 0.08508 | 0 | 0 | 0 | 6 | 0 | 8.51 | 3.2 | 2.46 | 0 | 0 | 0 | 0 | 6 | 3 | 8.51 | – |
| CCOC(=O)CC [ethyl propionate] | 0 | 0 | 0 | 0 | 0 | 0 | 0 | 0 | 0 | 0 | 0 | 0 | 0 | 0 | 0 | 1.56 | 1.89 | 0 | – |
| CCc1ccccc1 [ethylbenzene] | 0.1713 | 0 | 0.05742 | 0 | 0 | 0 | – | – | – | – | – | – | – | – | – | – | – | – | activation at 1 µM [1, 24]: 17%; activation at 10 µM [1, 24]: 3.3%; activation at 100 µM [1, 24]: 6%; activation at 1 µM [1, 25]: 17%; activation at 10 µM [1, 25]: 0%; activation at 100 µM [1, 25]: 6%; activation at 1 µM [2, 26]: 1.44%; activation at 10 µM [2, 26]: 1.55%; activation at 100 µM [2, 26]: 0%; activation at 1 µM [2, 27]: 0%; activation at 10 µM [2, 27]: 0%; activation at 100 µM [2, 27]: 0% |
| C=CCc1ccc(O)c(OC)c1 [eugenol] | 0.08485 | 0.05743 | 0 | 0 | 0 | 0 | 8.49 | 6 | 0 | 0 | 0 | 0 | 0 | 0 | 0 | 8.49 | 6 | 0 | – |
| CC(=O)OCC(C)C [isobutyl acetate] | 0.06574 | 0 | 0.1821 | 0 | 0.06695 | 0 | 6.57 | 0 | 18 | 2 | 7 | 3.7 | 0 | 7 | 0 | – | – | – | activation at 1 µM [1, 9]: 7%; activation at 10 µM [1, 10]: 5%; activation at 100 µM [1, 11]: 18% |
